Counter-ions that a name gives are not always drawn. ± gives the expanded uncertainty stated by the source.
Assays:
[1] = xn = mol fraction of the nth substance listed; settings: 101 kPa, Liquid
[2] = 101 kPa, Liquid

Row | SMILES | mass density ([1]; 293.15 K, x1 = 1) [kg/m3] | viscosity ([1]; 293.15 K, x1 = 1) [mPa·s] | mass density ([1]; 303.15 K, x1 = 1) [kg/m3] | viscosity ([1]; 303.15 K, x1 = 1) [mPa·s] | mass density ([1]; 313.15 K, x1 = 1) [kg/m3] | viscosity ([1]; 313.15 K, x1 = 1) [mPa·s] | mass density ([2]; 293.15 K) [kg/m3] | viscosity ([2]; 293.15 K) [mPa·s] | mass density ([2]; 303.15 K) [kg/m3] | viscosity ([2]; 303.15 K) [mPa·s] | mass density ([2]; 313.15 K) [kg/m3] | viscosity ([2]; 313.15 K) [mPa·s] | mass density ([1]; 293.15 K, x2 = 0) [kg/m3] | viscosity ([1]; 293.15 K, x2 = 0) [mPa·s] | mass density ([1]; 303.15 K, x2 = 0) [kg/m3] | viscosity ([1]; 303.15 K, x2 = 0) [mPa·s] | mass density ([1]; 313.15 K, x2 = 0) [kg/m3] | viscosity ([1]; 313.15 K, x2 = 0) [mPa·s]
1 | CC/C=C\CCOC(C)=O [(Z)-3-hexenyl acetate] + CCO | 900.82 ± 2.9 | 0.893 ± 0.028 | 893.14 ± 3 | 0.763 ± 0.024 | 886.19 ± 3.2 | 0.66 ± 0.021 | – | – | – | – | – | – | – | – | – | – | – | –
2 | CCC/C=C/COC(C)=O [(E)-2-hexenyl acetate] | – | – | – | – | – | – | 897.84 ± 3 | 0.901 ± 0.029 | 891.78 ± 3.1 | 0.77 ± 0.025 | 884.35 ± 3.2 | 0.666 ± 0.021 | – | – | – | – | – | –
3 | CC/C=C\CCOC=O [(Z)-3-hexenyl formate] | – | – | – | – | – | – | 909.15 ± 3 | 0.599 ± 0.021 | 906.6 ± 3 | 0.527 ± 0.019 | 903.17 ± 3.1 | 0.469 ± 0.017 | – | – | – | – | – | –
4 | CCO [ethanol] + CCCCOC(C)=O | – | – | – | – | – | – | – | – | – | – | – | – | 788.24 ± 4.7 | 1.16 ± 0.037 | 780.73 ± 4.8 | 0.968 ± 0.031 | 771.98 ± 5 | 0.81 ± 0.026
5 | CCO [ethanol] + CCC/C=C/COC(C)=O | – | – | – | – | – | – | – | – | – | – | – | – | 788.24 ± 4.7 | 1.16 ± 0.037 | 780.73 ± 4.8 | 0.968 ± 0.031 | 771.98 ± 5 | 0.81 ± 0.026
6 | CCO [ethanol] + CC/C=C\CCOC(C)=O | – | – | – | – | – | – | – | – | – | – | – | – | 788.24 ± 4.7 | 1.16 ± 0.037 | 780.73 ± 4.8 | 0.968 ± 0.031 | 771.98 ± 5 | 0.81 ± 0.026
7 | CCO [ethanol] | – | – | – | – | – | – | 788.24 ± 4.7 | 1.16 ± 0.037 | 780.73 ± 4.8 | 0.968 ± 0.031 | 771.98 ± 5 | 0.81 ± 0.026 | – | – | – | – | – | –
8 | CCO [ethanol] + CC/C=C\CCOC=O | – | – | – | – | – | – | – | – | – | – | – | – | 788.24 ± 4.7 | 1.16 ± 0.037 | 780.73 ± 4.8 | 0.968 ± 0.031 | 771.98 ± 5 | 0.81 ± 0.026
9 | CCCCOC(C)=O [butyl ethanoate] + CCO | 881.04 ± 3.2 | 0.732 ± 0.023 | 871.3 ± 3.4 | 0.628 ± 0.02 | 861.84 ± 3.5 | 0.546 ± 0.018 | – | – | – | – | – | – | – | – | – | – | – | –
10 | CCCCOC(C)=O [butyl ethanoate] | – | – | – | – | – | – | 881.04 ± 3.2 | 0.732 ± 0.023 | 871.3 ± 3.4 | 0.628 ± 0.02 | 861.84 ± 3.5 | 0.546 ± 0.018 | – | – | – | – | – | –
11 | CC/C=C\CCOC=O [(Z)-3-hexenyl formate] + CCO | 909.15 ± 3 | 0.599 ± 0.021 | 906.6 ± 3 | 0.527 ± 0.019 | 903.17 ± 3.1 | 0.469 ± 0.017 | – | – | – | – | – | – | – | – | – | – | – | –
12 | CC/C=C\CCOC(C)=O [(Z)-3-hexenyl acetate] | – | – | – | – | – | – | 900.82 ± 2.9 | 0.893 ± 0.028 | 893.14 ± 3 | 0.763 ± 0.024 | 886.19 ± 3.2 | 0.66 ± 0.021 | – | – | – | – | – | –
13 | CCC/C=C/COC(C)=O [(E)-2-hexenyl acetate] + CCO | 897.84 ± 3 | 0.901 ± 0.029 | 891.78 ± 3.1 | 0.77 ± 0.025 | 884.35 ± 3.2 | 0.666 ± 0.021 | – | – | – | – | – | – | – | – | – | – | – | –
